In paper PMC12541587 (Acta Pharmaceutica Sinica. B, 2025):
“And” between values parts separate entries of the source, which are not always exact repeats. Identical values can stand only once. Like-named read-outs stand apart in the source and are kept apart here.

How the values were obtained:
σ1R [1] = target: σ1R (Rattus norvegicus, UniProt Q9R0C9); experiment: biochemical; type: binding; conditions: for inhibition at 10 µM: read-out: σ1R Inhibition; for inhibition at 1 µM: read-out: σ1R inhibitory rate at 1 μmol/L
σ1R [2] = conditions: read-out: σ1R Ki (clinical σ1R agonists); cited from earlier work
σ1R [3] = conditions: healthy volunteers and Huntington disease patients; cited from earlier work
D2/D3 receptor = conditions: healthy volunteers and Huntington disease patients; cited from earlier work
dopamine D3 = conditions: read-out: dopamine D3 Ki; cited from earlier work
CYP1A2 = target: T1, CYP1A2 (Homo sapiens, UniProt P05177); experiment: in vitro
T1 sequence (P05177 1-516): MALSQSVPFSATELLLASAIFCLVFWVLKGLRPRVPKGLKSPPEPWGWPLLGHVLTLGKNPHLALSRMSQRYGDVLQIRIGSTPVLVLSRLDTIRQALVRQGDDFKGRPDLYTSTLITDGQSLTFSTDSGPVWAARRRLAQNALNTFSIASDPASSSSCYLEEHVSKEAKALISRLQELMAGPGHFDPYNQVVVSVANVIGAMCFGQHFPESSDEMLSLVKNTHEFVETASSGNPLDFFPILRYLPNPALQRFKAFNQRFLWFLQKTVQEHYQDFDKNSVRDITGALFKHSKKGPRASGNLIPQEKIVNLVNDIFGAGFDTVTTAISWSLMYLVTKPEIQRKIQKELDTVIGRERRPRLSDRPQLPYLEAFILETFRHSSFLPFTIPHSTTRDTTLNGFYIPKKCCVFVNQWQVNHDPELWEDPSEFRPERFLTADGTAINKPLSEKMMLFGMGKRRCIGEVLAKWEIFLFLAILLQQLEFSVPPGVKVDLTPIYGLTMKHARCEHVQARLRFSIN

CYP2C19 = CYP2C19 (Homo sapiens, UniProt P33261); experiment: CYP450 inhibition: CYP2C19; conditions: probe S-mephenytoin (35 μmol/L)
σ1R [4] = type: binding, rat; conditions: Ki without DPH / Ki with DPH 250 μmol/L
σ1R-LgBiT and BiP-SmBiT = σ1R-LgBiT and BiP-SmBiT (Homo sapiens, UniProt Q99720); experiment: NanoBiT σ1R-BiP heterodimerization assay; type: cell-based; conditions: 10 μmol/L
catalepsy = experiment: Catalepsy bar test; type: in vivo, mice
σ2R = target: T2, σ2R (Rattus norvegicus, UniProt Q5U3Y7); experiment: σ2R radioligand binding assay
T2 sequence (Q5U3Y7 1-176): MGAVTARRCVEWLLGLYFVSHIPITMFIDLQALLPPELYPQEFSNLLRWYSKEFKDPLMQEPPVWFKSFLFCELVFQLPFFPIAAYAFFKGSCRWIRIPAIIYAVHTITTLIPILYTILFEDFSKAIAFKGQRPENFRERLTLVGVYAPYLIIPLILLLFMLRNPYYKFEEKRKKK

Sequence of σ1R (Rattus norvegicus, UniProt Q9R0C9) (Q9R0C9 whole entry): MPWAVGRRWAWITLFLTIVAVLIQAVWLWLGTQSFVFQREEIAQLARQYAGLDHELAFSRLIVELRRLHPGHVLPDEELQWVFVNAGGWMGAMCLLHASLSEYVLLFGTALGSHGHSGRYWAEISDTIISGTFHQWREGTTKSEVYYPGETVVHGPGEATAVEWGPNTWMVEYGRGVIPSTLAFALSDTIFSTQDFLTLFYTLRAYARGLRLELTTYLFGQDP
Sequence of σ1R-LgBiT and BiP-SmBiT (Q99720 whole entry): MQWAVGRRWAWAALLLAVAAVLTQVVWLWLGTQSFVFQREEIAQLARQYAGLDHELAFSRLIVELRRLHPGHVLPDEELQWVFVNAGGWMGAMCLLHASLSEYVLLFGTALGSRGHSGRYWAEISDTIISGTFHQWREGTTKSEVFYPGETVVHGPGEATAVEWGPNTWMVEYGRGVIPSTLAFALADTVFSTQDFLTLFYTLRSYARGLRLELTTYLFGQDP
Sequence of CYP2C19 (P33261 whole entry): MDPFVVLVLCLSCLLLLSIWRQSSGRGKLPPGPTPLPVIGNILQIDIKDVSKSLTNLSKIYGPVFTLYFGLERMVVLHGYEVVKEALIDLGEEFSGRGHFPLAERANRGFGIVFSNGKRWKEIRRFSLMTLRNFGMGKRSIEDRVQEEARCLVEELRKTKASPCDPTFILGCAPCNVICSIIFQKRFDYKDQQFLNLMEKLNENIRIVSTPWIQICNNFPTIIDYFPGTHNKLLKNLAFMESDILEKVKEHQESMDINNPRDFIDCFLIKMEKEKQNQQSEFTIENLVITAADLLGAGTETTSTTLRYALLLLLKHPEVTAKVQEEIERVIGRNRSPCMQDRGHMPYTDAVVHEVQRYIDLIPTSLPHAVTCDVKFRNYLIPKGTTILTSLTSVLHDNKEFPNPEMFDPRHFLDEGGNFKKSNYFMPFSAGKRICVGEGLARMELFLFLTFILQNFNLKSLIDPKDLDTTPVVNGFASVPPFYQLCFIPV

Molecule C/C(=N\OCCN1CCOCC1)c1ccc(C)cc1 [16s] has an inhibition at 10 µM (σ1R [1]) of 66.2%.
In the case of CCCN1CCC(c2cccc(S(C)(=O)=O)c2)CC1 [Pridopidine], the Ki (σ1R [2]) is given as 57 nM, the “σ1R occupancy (PET)” value (σ1R [3]) is given as ~90% and the “D2/D3 receptor occupancy (PET)” value (D2/D3 receptor) is given as ~3%. The Ki (dopamine D3) was 1630 nM.
For COCCCC/C(=N\OCCN)c1ccc(C(F)(F)F)cc1 [Fluvoxamine], the inhibition at 10 μmol/L (CYP1A2) was 95.7%, the inhibition at 10 μmol/L (CYP2C19) was 95% and the inhibition at 10 µM (σ1R [1]) was 81.8%.
In the case of C=CCN1CCC2(C)c3cc(O)ccc3CC1C2C (stereo not shown) [SKF10047], the “Ratios Ki/(Ki + phenytoin)” value (σ1R [4]) is reported as 7.10 and 7.10 ± 0.74 and the Ki (σ1R [1]) is reported as 292 ± 6.18 nM.
Molecule COc1ccc(/C(C)=N/OCCCN2CCCCC2)cc1 [15l] has a Ki (σ1R [1]) of 39.4 ± 3.4 nM and an inhibition at 10 µM (σ1R [1]) of 93.2%.
For O=C(OCCN1CCOCC1)C1(c2ccccc2)CCCCC1 [PRE084], the “σ1R-LgBiT/BiP-SmBiT interaction, 10 min treatment” value (σ1R-LgBiT and BiP-SmBiT) was “decreased this interaction” and the Ki (σ1R [1]; read-out: σ1R Ki) was 23.1 ± 3.17 nM.
In the case of CN(C)CCN(C)CCc1ccc(Cl)c(Cl)c1 [BD1047], the “Ratios Ki/(Ki + phenytoin)” value (σ1R [4]) is reported as 0.63 ± 0.20 and the Ki (σ1R [1]; read-out: σ1R Ki, mean ± SEM, n = 3) is reported as 0.87 ± 0.15 nM.
For Cc1nc2n(c(=O)c1CCN1CCC(c3noc4cc(F)ccc34)CC1)CCCC2 [risperidone], the “mean catalepsy duration at peak response” value (catalepsy; 3 mg/kg risperidone, 60 min post-administration) was 49.57 min and the cataleptic response (catalepsy; oral, 15d 10 to 45 mg/kg, risperidone 3 mg/kg) was “catalepsy induced by 3 mg/kg risperidone was observed”.
In the case of CC(C)=CCN1CC[C@]2(C)c3cc(O)ccc3C[C@H]1[C@H]2C [(+)-Pentazocine], the Ki (σ2R) is reported as 673 ± 27.5 nM and the inhibition at 10 µM (σ1R [1]) is reported as 99%.
With FC(F)(F)c1ccc2c(c1)OCC/C2=N\OCCCN1CCCCC1 [15o] the Ki (σ1R [1]) was 76.2 ± 2.92 nM and the inhibition at 10 µM (σ1R [1]) was 99.3%.
C/C(=N\OCCN1CCOCC1)c1ccccc1 [16p] gave an inhibition at 10 µM (σ1R [1]) of 74.4% and an inhibition at 1 µM (σ1R [1]) of -8.25%.
In the case of COc1ccc(/C(C)=N/OCCN2CCOCC2)cc1 [16q], the inhibition at 10 µM (σ1R [1]) is reported as 93.2% and the inhibition at 1 µM (σ1R [1]) is reported as 37.8%.
For C/C(=N\OCCN1CCOCC1)c1ccc(Br)cc1 [16r], the inhibition at 10 µM (σ1R [1]) was 106% and the inhibition at 1 µM (σ1R [1]) was 55.4%.
